ChEMBL document CHEMBL4480368, “Synthesis and potential antineoplastic activity of dehydroabietylamine imidazole derivatives” (Medchemcomm, 2018)
Activity calls are given as the source filed them. No cut-off for these calls is given here.

Legend:
MCF7 [1] = test: Induction of apoptosis in human MCF7 cells assessed as decrease in viable cells after 24 hrs by Annexin V-FITC/propidium iodide staining based flow cytometry; format: functional, cell-based
MCF7 [2] = test: Induction of apoptosis in human MCF7 cells assessed as increase in apoptotic cells after 24 hrs by Annexin V-FITC/propidium iodide staining based flow cytometry; format: functional, cell-based
Salmon testes DNA [3] = test: Binding affinity to Salmon sperm DNA assessed as DNA intercalation at 1.5 x 10^-5M by ethidium bromide staining based fluorescence assay; format: nucleic-acid assay; conditions: Salmonidae
Salmon testes DNA [4] = test: Binding affinity to Salmon sperm DNA assessed as hypochromic shift at 5 x 10^-5M by absorption spectra analysis; format: nucleic-acid assay; conditions: Salmonidae
A549 [5] = test: Induction of apoptosis in human A549 cells assessed as decrease in viable cells after 24 hrs by Annexin V-FITC/propidium iodide staining based flow cytometry; format: functional, cell-based
A549 [6] = test: Induction of apoptosis in human A549 cells assessed as increase in apoptotic cells after 24 hrs by Annexin V-FITC/propidium iodide staining based flow cytometry; format: functional, cell-based
HeLa = test: Antineoplastic activity against human HeLa cells measured after 36 hrs by MTT assay; format: functional, cell-based
HepG2 = test: Antineoplastic activity against human HepG2 cells measured after 36 hrs by MTT assay; format: functional, cell-based; conditions: HepG2, 36 h
MCF7 [7] = test: Antineoplastic activity against human MCF7 cells measured after 36 hrs by MTT assay; format: functional, cell-based; conditions: MCF7, 36 h
A549 [8] = test: Antineoplastic activity against human A549 cells measured after 36 hrs by MTT assay; format: functional, cell-based; conditions: A549, 36 h
HUVEC [9] = test: Cytotoxicity against HUVEC measured after 36 hrs by MTT assay; format: cell-based; conditions: Homo sapiens
MCF7 [10] = test: Induction of apoptosis in human MCF7 cells assessed as early apoptotic cells at 1 ug/ml after 24 hrs by Annexin V-FITC/propidium iodide staining based flow cytometry (reference value: 2.83%); format: functional
MCF7 [11] = test: Induction of apoptosis in human MCF7 cells assessed as early apoptotic cells at 5 ug/ml after 24 hrs by Annexin V-FITC/propidium iodide staining based flow cytometry (reference value: 2.83%); format: functional
MCF7 [12] = test: Induction of apoptosis in human MCF7 cells assessed as early apoptotic cells at 0.1 ug/ml after 24 hrs by Annexin V-FITC/propidium iodide staining based flow cytometry (reference value: 2.83%); format: functional
HUVEC [13] = test: Cytotoxicity against HUVEC; format: cell-based; conditions: Homo sapiens
A549 [14] = test: Induction of apoptosis in human A549 cells assessed as early apoptotic cells at 1 ug/ml after 24 hrs by Annexin V-FITC/propidium iodide staining based flow cytometry (reference value: 6.09%); format: functional
A549 [15] = test: Induction of apoptosis in human A549 cells assessed as early apoptotic cells at 2 ug/ml after 24 hrs by Annexin V-FITC/propidium iodide staining based flow cytometry (reference value: 6.09%); format: functional
A549 [16] = test: Induction of apoptosis in human A549 cells assessed as early apoptotic cells at 5 ug/ml after 24 hrs by Annexin V-FITC/propidium iodide staining based flow cytometry (reference value: 6.09%); format: functional
[17] = Drug internalization in human HeLa cells at 100 nM incubated for 2 hrs at 4 degC by confocal fluorescence imaging analysis; format: ADME, cell-based; conditions: 0.1 µM

SMILES	Activity (Salmon testes DNA [4])	IC50 (HeLa) [µM]	IC50 (HepG2) [µM]	IC50 (MCF7 [7]) [µM]	IC50 (A549 [8]) [µM]	IC50 (HUVEC [9]) [µM]	also measured
CC(C)c1ccc2c(c1)CC[C@H]1[C@](C)(CN)CCC[C@]21C.CC(C)c1ccc2c(c1)CC[C@H]1[C@](C)(CN)CCC[C@]21C.O=C(O)c1nc[nH]c1C(=O)O [listing 1 of 2 here]	Active	–	–	–	–	–	Activity (MCF7 [1]): Dose-dependent effect; Activity (MCF7 [2]): Dose-dependent effect; Activity (Salmon testes DNA [3]): Active
CC(C)c1ccc2c(c1)CC[C@H]1[C@](C)(CN)CCC[C@]21C.O=C(O)c1nc[nH]c1C(=O)O [listing 1 of 2 here]	–	–	–	–	–	–	Activity (A549 [5]): Dose-dependent effect; Activity (A549 [6]): Dose-dependent effect
CC(C)c1ccc2c(c1)CC[C@H]1[C@](C)(CN)CCC[C@]21C.CC(C)c1ccc2c(c1)CC[C@H]1[C@](C)(CN)CCC[C@]21C.O=C(O)c1nc[nH]c1C(=O)O [listing 2 of 2 here]	–	2.88	2.91	0.75	4.37	3.98	Activity (MCF7 [10]): 39.49%; Activity (MCF7 [11]): 54.21%; Activity (MCF7 [12]): 25.4%
O=c1[nH]cc(F)c(=O)[nH]1 [FLUOROURACIL]	–	–	–	–	–	–	IC50 (HUVEC [13]): 11.7 µM
CC(C)c1ccc2c(c1)CC[C@H]1[C@](C)(CNC(=O)c3cncn3C)CCC[C@]21C	Active	20.9	12	2.17	53.2	57.8	–
CC(C)c1ccc2c(c1)CC[C@H]1[C@](C)(CNC(=O)c3ncn(C)c3C(=O)O)CCC[C@]21C	Active	16.8	6.52	12.1	12.3	33	–
CC(C)c1ccc2c(c1)CC[C@H]1[C@](C)(CN)CCC[C@]21C.O=C(O)c1nc[nH]c1C(=O)O [listing 2 of 2 here]	–	18.7	4.62	6.47	1.85	1.21	Activity (A549 [14]): 12.47%; Activity (A549 [15]): 30.64%; Activity (A549 [16]): 76.86%
CC(C)c1ccc2c(c1)CC[C@H]1[C@](C)(CN)CCC[C@]21C	–	–	–	–	–	–	Drug uptake [17]: Not Active
CC(C)c1ccc2c(c1)CC[C@H]1[C@](C)(CNC(=O)c3ncn(C)c3C(=O)NC[C@]3(C)CCC[C@]4(C)c5ccc(C(C)C)cc5CC[C@@H]34)CCC[C@]21C	Active	48.5	50.5	9.85	17	44.9	–
COc1cccc2c1C(=O)c1c(O)c3c(c(O)c1C2=O)C[C@@](O)(C(=O)CO)C[C@@H]3O[C@H]1C[C@H](N)[C@H](O)[C@H](C)O1 [DOXORUBICIN]	–	3.55	–	14	3.35	4.4	–
